Source: US20090269362A1, “Method for Controlling Immunodominance” (priority 2005, published 2009)

Legend:
[1] = test system: peptide specific T cell hybridomas; assay: T cell hybridoma assay (IL-2 production, CTLL/MTT); format: cell-based, mouse
lymph node cells = assay: IL-2 ELISPOT after immunization with peptide (cross reactivity of WT and variant); format: in vivo, mouse; conditions: mice immunized with WT or variant peptide
CD4 T cells [2] = assay: IL-2 ELISPOT of draining lymph node cells after immunization with MalE:insert protein; format: in vivo, mouse; conditions: mice immunized with MalE protein
sI-A^d [3] = conditions: pH 5.3, 37° C., FITC peptide from sI-A^d
Sequence of sI-A^d (P04228 24-111 limits assumed): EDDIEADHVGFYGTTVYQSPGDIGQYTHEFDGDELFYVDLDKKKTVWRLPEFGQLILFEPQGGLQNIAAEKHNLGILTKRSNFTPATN
Sequence of sI-A^d (P01921 28-122 limits assumed, further chain): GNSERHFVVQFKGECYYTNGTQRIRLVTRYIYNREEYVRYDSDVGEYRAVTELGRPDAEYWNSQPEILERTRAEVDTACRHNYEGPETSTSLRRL

sI-A^d [4] = assay: Peptide competition with FITC-HA[126-138] for binding to soluble I-A^d; set-up: species or system mouse; conditions: 1 μM FITC-HA[126-138], 20 nM soluble I-A^d
Description: B. The percentage of inhibition of binding of 1 μM N-terminal FITC-HA[126-138] to sI-A^d by the unlabeled competitor peptide was plotted against the concentration of unlabeled inhibitory peptide. Data is represented as a Hill Plot (Hill, J Physiol 40, iv-vii, 1910), and is the average of 2 independent experiments
Soluble I-A^d (20 nM) and 1 μM FITC-HA[126-138] were used for competition assays, which is in the titratable range of peptide and class II molecules. Unlabeled competitor peptides at a final concentrations ranging between 0-500 μM were mixed, and after 16-20 h of incubation at 37° C., the sI-A^d-FITC-HA[126-138] complex was separated from free peptide and quantified as described above. Inhibition by competitor peptides was calculated using the Hill equation ((Hill, J Physiol 40, iv-vii, 1910), with the IC50 value the concentration of unlabeled competitor peptide required to achieve 50% inhibition of the labeled peptide binding to class II molecules.

CD4 T cells [5] = assay: IL-2 ELISPOT after immunization with OVA protein; format: in vivo, mouse; conditions: mice immunized with OVA protein
Description: Groups of 2 BALB/c mice were immunized in the footpad with (A) 200 μg/mL OVA protein, (B) 200 μg/mL of the indicated MalE protein, or (D and E) 5 nmol of the indicated peptide emulsified in 50 μL PBS:CFA. The number of IL-2 producing cells at day 10 was determined by 16 h in vitro stimulation of CD4 purified cells with syngeneic spleen cells and (A) 200 μg/mL protein or 12.5 μM peptide, (B) 200 μg/mL protein or 5 μM peptide, or (D and E) the indicated amount of peptide and quantified using IL-2 ELISPOT assays with background subtracted. (A and D) Data represents the mean counts of two separate cell dilutions ([…] and 1.25×10^5) of triplicate wells normalized as indicated. […] Data are representative of at least 2 independent experiments.
To provide another example of a cryptic epitope that can gain immunodominance by simply changing its kinetic stability with I-A^d, one of the peptide registers contained within the prototypic I-A^d-restricted peptide OVA [323-339] (Jenkins et al., Annu Rev Immunol 19, 23-45, 2001; Sette et al., J Immunol 142, 35-40, 1988) was studied. Several studies (McFarland et al., Biochemistry 38, 16663-16670, 1999; Robertson et al., J Immunol 164, 4706-4712, 2000) have shown that this long peptide contains several alternative registers, including the most amino terminal segment that was co-crystallized with I-A^d (Scott et al., Immunity 1, 73-83, 1998). […]

Substance	stimulation of specific T cell hybridoma by soluble peptide (in words) ([1]; peptide presented by I-A^d expressing cells)	cross reactivity between WT and variant peptide after peptide immunization (in words) (lymph node cells)	immunogenicity of peptide within MalE (in words) (CD4 T cells [2])	t1/2 (half-life, kinetic stability) of peptide with I-A^d (sI-A^d [3])	reactivity of specific T cell hybridoma to peptide inserted into MalE (in words) ([1]; MalE:insert protein, BALB/c spleen as APCs)	competition with HA [126-138] for binding to I-A^d (in words) (sI-A^d [4])	percent of T cells raised against OVA that recognize the peptide (CD4 T cells [5])
A332I, I334V: OVA [327-339] variant with substitutions at P4 and P6 (AVHAAHIEVNEAG; UniProt P01012 327-339, looked up, variant A332I I334V)	recognized by the 3DO11.10 T cell hybridoma	cross-reacted back onto the WT OVA peptide	immunodominant peptide	greater than 80 h			
AMKRHGLDNYRGYSL [HEL [11-25]]			failure in immunogenicity	6 h	gained reactivity	competed well	
HEL R14Q, G22S: HEL [11-25] variant with changes at P1 and P9 (AMKQHGLDNYRSYSL; UniProt P00698 29-43, looked up, variant R14Q G22S)			remained non-immunogenic	11 h			
HEL [20-35]: cryptic epitope of hen-egg lysozyme (YRGYSLGNWVCAAKFE; UniProt P00698 38-53, looked up, fragment)				4 h		competed poorly	
OVA [273-288]: immunodominant I-Ad restricted epitope from chicken ovalbumin (VMEERKIKVYLPRMKM; UniProt P01012 273-288, looked up, fragment)				160 h			
OVA [327-339]: carboxyterminal register of OVA [323-339] recognized by the 3DO11.10 T cell (AVHAAHAEINEAG; UniProt P01012 327-339, looked up, fragment)				0.3 h			Less than 1%
R14Q, N19A, G22S: HEL [11-25] variant with changes at P1, P6, and P9 (AMKQHGLDAYRSYSL; UniProt P00698 29-43, looked up, variant R14Q N19A G22S)		a significant portion of the T cells elicited were non-reactive with the WT HEL peptide	significant gain in immunogenicity	35 h			
